In ChEMBL document CHEMBL3632495, “Discovery of 1,1'-Biphenyl-4-sulfonamides as a New Class of Potent and Selective Carbonic Anhydrase XIV Inhibitors” (J Med Chem, 2015):

How the values were obtained:
Carbonic anhydrase 12 = Carbonic anhydrase 12 (Homo sapiens, UniProt O43570)
Description: Inhibition of human carbonic anhydrase-12 assessed as CO2 hydration activity by stopped-flow method

Carbonic anhydrase 9 = Carbonic anhydrase 9 (Homo sapiens, UniProt Q16790)
Description: Inhibition of human carbonic anhydrase-9 assessed as CO2 hydration activity by stopped-flow method

Carbonic anhydrase 1 = Carbonic anhydrase 1 (Homo sapiens, UniProt P00915)
Description: Inhibition of human carbonic anhydrase-1 assessed as CO2 hydration activity by stopped-flow method

Carbonic anhydrase 2 = Carbonic anhydrase 2 (Homo sapiens, UniProt P00918)
Description: Inhibition of human carbonic anhydrase-2 assessed as CO2 hydration activity by stopped-flow method

Carbonic anhydrase 12, sequence (O43570 whole entry): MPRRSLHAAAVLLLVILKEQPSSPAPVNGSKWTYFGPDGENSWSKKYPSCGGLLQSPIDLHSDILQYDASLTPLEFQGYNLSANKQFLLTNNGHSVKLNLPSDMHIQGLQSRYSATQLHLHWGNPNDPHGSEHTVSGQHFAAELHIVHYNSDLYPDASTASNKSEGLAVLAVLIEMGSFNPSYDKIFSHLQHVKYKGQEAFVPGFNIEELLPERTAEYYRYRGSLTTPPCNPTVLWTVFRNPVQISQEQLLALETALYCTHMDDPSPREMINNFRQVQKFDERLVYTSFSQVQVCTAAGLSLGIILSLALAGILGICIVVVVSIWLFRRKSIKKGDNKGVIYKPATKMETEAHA
Carbonic anhydrase 1, sequence (P00915 whole entry): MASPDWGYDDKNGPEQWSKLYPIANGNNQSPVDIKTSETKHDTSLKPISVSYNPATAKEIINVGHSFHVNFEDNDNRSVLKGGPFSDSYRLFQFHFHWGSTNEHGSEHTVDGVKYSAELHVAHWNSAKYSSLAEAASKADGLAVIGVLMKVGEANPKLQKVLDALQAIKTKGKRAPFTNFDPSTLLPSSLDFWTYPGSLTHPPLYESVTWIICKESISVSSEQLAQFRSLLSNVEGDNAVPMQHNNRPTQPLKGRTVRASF

SMILES | Ki (Carbonic anhydrase 12) | Ki (Carbonic anhydrase 9) | Ki (Carbonic anhydrase 1) | Ki (Carbonic anhydrase 2)
NS(=O)(=O)c1ccc(-c2ccc(Cc3ccccc3)cc2)cc1 | 77.2 nM | 519 nM | 75.3 nM | 454 nM
COC(=O)c1ccc(Cc2ccc(-c3ccc(S(N)(=O)=O)cc3)cc2)cc1 | 237 nM | 76.7 nM | 122 nM | 50.6 nM
NS(=O)(=O)c1ccc(-c2ccc(C(O)c3ccc(C(=O)O)cc3)cc2)cc1 (stereo unspecified) | 93.9 nM | 450 nM | 72.5 nM | 814 nM
CC(C)(C)OC(=O)c1ccc(-c2ccc(S(N)(=O)=O)cc2)cc1 | 44.9 nM | – | 78.8 nM | 42 nM
NS(=O)(=O)c1ccc(-c2ccc([N+](=O)[O-])cc2)cc1 | 7.4 nM | 9.6 nM | 62.2 nM | 11.6 nM
NS(=O)(=O)c1ccc(-c2ccc(Cc3ccc([N+](=O)[O-])cc3)cc2)cc1 | 9.3 nM | 705 nM | 70.5 nM | 39.7 nM
NS(=O)(=O)c1ccc(-c2ccc(C(=O)c3ccc([N+](=O)[O-])cc3)cc2)cc1 | 70.6 nM | – | 80.1 nM | 63.3 nM
COC(=O)c1ccc(-c2ccc(S(N)(=O)=O)cc2)cc1 | 35.2 nM | 9.3 nM | 77 nM | 9 nM
Nc1ccc(-c2ccc(S(N)(=O)=O)cc2)cc1 | 7.7 nM | – | 78.5 nM | 9.1 nM
NS(=O)(=O)c1ccc(-c2ccc(C(=O)NCCO)cc2)cc1 | 26.2 nM | – | 46.7 nM | 11.5 nM

The next molecules have a lower Ki (Carbonic anhydrase 2) than those just listed; values first:

Ki (Carbonic anhydrase 12) | Ki (Carbonic anhydrase 9) | Ki (Carbonic anhydrase 1) | Ki (Carbonic anhydrase 2) | SMILES
7.3 nM | 42.3 nM | 73.8 nM | 7.8 nM | COC(=O)c1ccc(C(=O)c2ccc(-c3ccc(S(N)(=O)=O)cc3)cc2)cc1
– | 31.4 nM | 236 nM | 6.9 nM | NS(=O)(=O)c1ccc(-c2ccc(Cc3ccc(C(=O)O)cc3)cc2)cc1
81.1 nM | 8.9 nM | 52.7 nM | 4.9 nM | NS(=O)(=O)c1ccc(-c2ccc(C(O)c3ccccc3)cc2)cc1 (stereo unspecified)
8.3 nM | 823 nM | 67.5 nM | 5.3 nM | NC(=O)c1ccc(-c2ccc(S(N)(=O)=O)cc2)cc1
8.1 nM | 6 nM | 589 nM | 5.2 nM | Nc1ccc(Cc2ccc(-c3ccc(S(N)(=O)=O)cc3)cc2)cc1
6.7 nM | – | 6.3 nM | 6.6 nM | COC(=O)c1ccc(C(O)c2ccc(-c3ccc(S(N)(=O)=O)cc3)cc2)cc1 (stereo unspecified)
– | 678 nM | – | 5.9 nM | NS(=O)(=O)c1ccc(-c2ccc(C(O)c3ccc([N+](=O)[O-])cc3)cc2)cc1 (stereo unspecified)
52.3 nM | 3.6 nM | 340 nM | 6.2 nM | NS(=O)(=O)c1ccc(-c2ccc(C(=O)O)cc2)cc1
7.4 nM | – | 1630 nM | 4.3 nM | NS(=O)(=O)c1ccc(-c2ccc(C(=O)c3ccccc3)cc2)cc1
45.5 nM | 8.5 nM | 263 nM | 4.8 nM | NS(=O)(=O)c1ccc(-c2ccc(C(=O)c3ccc(C(=O)O)cc3)cc2)cc1
